Values joined by “and” are separate entries in the source; they are usually repeats but may differ in a detail not shown here. Identical values can stand only once.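 Step 1: Grow cells in 96-well plates. Step 2: Expose to compound for 48 hours at 5 concentrations. Step 3: Interpolate endpoints linearly; if unreached, use highest concentration. At the GI50, growth is halved. TGI: total growth inhibition.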
Key:
Assay in all cases: NCI-60 cell line screen, 48 h
ACHN renal = system: ACHN renal
MCF7 breast = system: MCF7 breast
T-47D breast = system: T-47D breast
NCI-H23 lung = system: NCI-H23 lung
SK-MEL-28 melanoma = system: SK-MEL-28 melanoma
UACC-257 melanoma = system: UACC-257 melanoma
DU-145 prostate = system: DU-145 prostate
MDA-MB-435 = system: MDA-MB-435
NCI-H460 lung = system: NCI-H460 lung
CAKI-1 renal = system: CAKI-1 renal

SMILES | GI50 (ACHN renal) [nM] | TGI (ACHN renal) | GI50 (MCF7 breast) [nM] | TGI (MCF7 breast) | GI50 (T-47D breast) [µM] | TGI (T-47D breast) | GI50 (NCI-H23 lung) [nM] | TGI (NCI-H23 lung) | GI50 (SK-MEL-28 melanoma) [µM] | TGI (SK-MEL-28 melanoma) | GI50 (UACC-257 melanoma) [µM] | TGI (UACC-257 melanoma) | GI50 (DU-145 prostate) [µM] | TGI (DU-145 prostate) | GI50 (MDA-MB-435) [nM] | TGI (MDA-MB-435) | GI50 (NCI-H460 lung) [nM] | TGI (NCI-H460 lung) | GI50 (CAKI-1 renal) [µM] | TGI (CAKI-1 renal)
C[C@@H]1CC[C@@H]2[C@@H]1[C@H](OC(=O)/C=C/c1ccccc1)[C@]1(c3ccccc3)C[C@@H](OC(=O)CO)[C@@]2(C)O1 | 179 | 0.597 µM | 9190 | 26.5 µM | 6.67 | 21.2 µM | 15000 | 35.9 µM | 16.3 | 33.4 µM | 21.1 | 43.1 µM | 15.9 | 33.8 µM | 14900 | 33.2 µM | 16300 | 38.6 µM | 0.504 | 18.4 µM
O=C(Nc1nc2ccccc2s1)OCC(F)(F)F | > 100000 | > 100 µM | > 100000 | > 100 µM | > 100 | > 100 µM | > 100000 | > 100 µM | > 100 | > 100 µM | > 100 | > 100 µM | > 100 | > 100 µM | > 100000 | > 100 µM | > 100000 | > 100 µM | > 100 | > 100 µM
CC(=O)OCC1OC(O[C@@H]2C[C@H]3C(C)(C)[C@H](OC(C)=O)CC[C@]3(C)[C@H]3CCC4=C([C@@H](C)C[C@@H](O)[C@H](O)C(C)(C)O)CC[C@@]4(C)[C@@]32C)C(O)C(O)C1O (some centres undefined) | 17800 | 31.9 µM | 2890 | 11.9 µM | 16.5 | 30.3 µM | 16700 | 30.4 µM | 17 | 30.9 µM | 16.3 | 30.3 µM | 17.8 | 31.8 µM | 16000 | 29.5 µM | 16000 | 29.8 µM | 15.6 | 28.9 µM
Cc1ccc2c(C(C[N+](=O)[O-])c3cccs3)c(-c3ccccc3)[nH]c2c1 (centres undefined) | 2150 | 13.3 µM | 1410 | 12.8 µM | 2.22 | 27.4 µM | 1880 | 8.18 µM | 2.99 | 8.41 µM | 3.88 | 13.7 µM | 3.7 | 16.9 µM | 822 | 2.14 µM | 1380 | 6.14 µM | 1.04 | 5.12 µM
Cc1nn(-c2ccc(F)cc2)c2ncnc(Nc3ccc(NC(=O)Nc4ccc(Cl)c(C(F)(F)F)c4)cc3)c12 | 1750 | 5.62 µM | 2110 | 6.67 µM | 1.73 | 5.27 µM | 1910 | 4.6 µM | 2.18 | 5.68 µM | 2.25 | 5.99 µM | 3.17 | 11.7 µM | 3260 | 12.6 µM | 2350 | 6.01 µM | 1.83 | 4.75 µM
CCn1c(-c2nonc2N)nc2c(C#CCN)ncc(OCCCN)c21 | > 25000 | > 25 µM | > 25000 | > 25 µM | > 25 | > 25 µM | > 25000 | > 25 µM | > 25 | > 25 µM | > 25 | > 25 µM | > 25 | > 25 µM | > 25000 | > 25 µM | > 25000 | > 25 µM | > 25 | > 25 µM
Clc1ccccc1C(c1ccccc1)(c1ccccc1)n1ccnc1 | 2870 | 13.1 µM and 25.6 µM | 2890 | 11.8 µM and 24.7 µM | 2.3 | 14.5 µM and 30.4 µM | 2880 | 13.1 µM and 26.3 µM | 3.86 | 15.6 µM and 36.1 µM | 3.43 | 14.2 µM and 25.2 µM | 4.87 | 17.2 µM and 39.6 µM | 2400 | 10.1 µM and 47.4 µM | 2900 | 9.53 µM and 29.8 µM | 2.34 | 15.3 µM and 50.5 µM
COc1cc2ncn(-c3cc(OCc4ccccc4Cl)c(C(N)=O)s3)c2cc1OC | 1580 | > 25 µM | 88.5 | > 25 µM | 3.78 | > 25 µM | 202 | 4.68 µM | 1.46 | > 25 µM | – | > 25 µM | 0.105 | 0.511 µM | 74.5 | 0.351 µM | 146 | > 8.64 µM | 3.02 | > 25 µM
CNC(=O)c1ccccc1CC1(O)c2ccccc2Oc2ccccc21 | 26200 | > 100 µM | 5080 | 44.5 µM | 21.5 | > 100 µM | 26000 | > 100 µM | 23.2 | > 100 µM | 33.8 | > 100 µM | 22 | 56.5 µM | 3320 | 19.9 µM | 25000 | 82.6 µM | 21.7 | > 100 µM
O=C(CSc1nc2ccc([N+](=O)[O-])cc2[nH]1)Nc1ccc(F)c(Cl)c1 | 2350 | 7.93 µM | 2030 | 9.4 µM | 1.11 | 10.2 µM | 2050 | 8.79 µM | 2.68 | 12.9 µM | 1.54 | 6.32 µM | 3.24 | 13.4 µM | 2600 | 12.6 µM | 2870 | 11.3 µM | 1.95 | 7.33 µM
CN(C)CC(=O)N1CCC(c2ccc(NC(=O)c3ncc(C#N)[nH]3)c(C3=CCCCC3)c2)CC1 | 5420 | 17.8 µM | 3370 | 16.9 µM | 11.9 | 28.8 µM | 5510 | 19.5 µM | 2.2 | 4.68 µM | 2.17 | 4.8 µM | 12 | 24.6 µM | 2990 | 12.6 µM | 7830 | 23.4 µM | 3.52 | 16.1 µM
Cc1ccn2c3c(c(C(=O)O)c2c1)C(=O)c1ccccc1C3=O | > 96400 | > 100 µM | 6520 | 97.2 µM | > 100 | > 100 µM | 1740 | 5.88 µM | 4.44 | > 100 µM | 4.41 | > 60.3 µM | 1.68 | 3.18 µM | 1570 | 3.05 µM | 1360 | 3.07 µM | > 100 | > 100 µM
